Data reported in patent US8999957B2, “Heterocyclic compounds as ERK inhibitors” (Merck Sharp & Dohme Corp., priority 2010, dated 2015).

The compounds below were run against fully phosphorylated, mouse aERK2 enzyme (Mus musculus (Mouse), UniProt P63085) (assay: Active ERK2 (aERK) IMAP-FP assay, condition 2). Settings: aERK assay condition 2, 30 uM ATP; read-out: aERK IC50.
Format: biochemical
Experimental: Active ERK2 (aERK) Assay: (Unless Indicated Otherwise, the Data Provided for aERK was obtained using Condition 1)
Activated ERK2 activity was determined in an IMAP-FP assay (Molecular Devices). […] Phosphorylation reactions were allowed to proceed for 40-45 minutes and were immediately quenched by the addition of 60 μL IMAP detection beads (1:1000 dilutions) in IMAP binding buffer. Plates were read on EnVision reader after 30 minutes binding equilibration.

Sequence of fully phosphorylated, mouse aERK2 enzyme (P63085 whole entry): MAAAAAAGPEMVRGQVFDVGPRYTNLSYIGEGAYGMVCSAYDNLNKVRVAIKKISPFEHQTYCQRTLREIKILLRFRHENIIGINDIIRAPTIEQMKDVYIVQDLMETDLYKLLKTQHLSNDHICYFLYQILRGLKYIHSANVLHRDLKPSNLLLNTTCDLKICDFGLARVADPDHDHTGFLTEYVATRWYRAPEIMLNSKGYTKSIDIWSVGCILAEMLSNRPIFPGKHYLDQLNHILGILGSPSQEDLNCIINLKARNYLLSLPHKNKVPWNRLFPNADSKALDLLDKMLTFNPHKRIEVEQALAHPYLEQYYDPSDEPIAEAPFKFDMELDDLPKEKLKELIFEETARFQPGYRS

Row | IC50 [nM] | Compound
1 | 4.1 | COc1cccc(F)c1CN1C[C@H](NC(=O)c2ccc3[nH]nc(-c4ccnc(C)c4)c3c2)CC[C@H]1C(=O)Nc1cccnc1 [N-[(3R,6S)-1-(2-fluoro-6-methoxybenzyl)-6-(pyridin-3-ylcarbamoyl)piperidin-3-yl]-3-(2-methylpyridin-4-yl)-1H-indazole-5-carboxamide]
2 | 3 | COc1cccc(F)c1CN1C[C@H](NC(=O)c2ccc3[nH]nc(-c4ccnc(C)c4)c3c2)CC[C@H]1C(=O)Nc1ccncc1 [N-[(3R,6S)-1-(2-fluoro-6-methoxybenzyl)-6-(pyridin-4-ylcarbamoyl)piperidin-3-yl]-3-(2-methylpyridin-4-yl)-1H-indazole-5-carboxamide]
3 | 8.8 | COc1cccc(F)c1CN1C[C@H](NC(=O)c2ccc3[nH]nc(-c4ccnc(C)c4)c3c2)CC[C@H]1C(=O)NCC1(CO)CCCC1 [N-[(3R,6S)-1-(2-fluoro-6-methoxybenzyl)-6-({[1-(hydroxymethyl)cyclopentyl]methyl}carbamoyl)piperidin-3-yl]-3-(2-methylpyridin-4-yl)-1H-indazole-5-carboxamide]
4 | 1.5 | COc1cccc(F)c1CN1C[C@H](NC(=O)c2ccc3[nH]nc(-c4ccnc(C)c4)c3c2)CC[C@H]1C(=O)NC[C@@H]1CC[C@@H](O)C1 [N-[(3R,6S)-1-(2-fluoro-6-methoxybenzyl)-6-({[(1R,3R)-3-hydroxycyclopentyl]methyl}carbamoyl)piperidin-3-yl]-3-(2-methylpyridin-4-yl)-1H-indazole-5-carboxamide]
5 | 1.3 | COc1cccc(F)c1CN1C[C@H](NC(=O)c2ccc3[nH]nc(-c4ccnc(C)c4)c3c2)CC[C@H]1C(=O)NC[C@H]1CC[C@H](O)C1 [N-[(3R,6S)-1-(2-fluoro-6-methoxybenzyl)-6-({[(1S,3S)-3-hydroxycyclopentyl]methyl}carbamoyl)piperidin-3-yl]-3-(2-methylpyridin-4-yl)-1H-indazole-5-carboxamide]
6 | 3.4 | COc1cccc(F)c1CN1C[C@H](NC(=O)c2ccc3[nH]nc(-c4ccnc(C)c4)c3c2)CC[C@H]1C(=O)NC1CC1 [N-[(3R,6S)-6-(cyclopropylcarbamoyl)-1-(2-fluoro-6-methoxybenzyl)piperidin-3-yl]-3-(2-methylpyridin-4-yl)-1H-indazole-5-carboxamide]

Same assay, conditions: active ERK2; read-out: aErk2 Ic50

Row | Compound | IC50 [nM]
7 | COc1cccc(F)c1CN1C[C@H](NC(=O)c2ccc3[nH]nc(-c4ccnc(C)c4)c3c2)CC[C@H]1C(=O)N1CCOCC1 [N-[(3R,6S)-1-(2-fluoro-6-methoxybenzyl)-6-(morpholin-4-ylcarbonyl)piperidin-3-yl]-3-(2-methylpyridin-4-yl)-1H-indazole-5-carboxamide] | 18.2
8 | COc1cccc(F)c1CN1C[C@H](NC(=O)c2ccc3[nH]nc(-c4ccncc4)c3c2)CC[C@H]1C(=O)N1CCCCC1 [N-[(3R,6S)-1-(2-fluoro-6-methoxybenzyl)-6-(piperidin-1-ylcarbonyl)piperidin-3-yl]-3-pyridin-4-yl-1H-indazole-5-carboxamide] | 59.9
9 | COc1cccc(F)c1CN1C[C@H](NC(=O)c2ccc3[nH]nc(-c4ccncc4)c3c2)CC[C@H]1C(=O)N1CCCC1 [N-[(3R,6S)-1-(2-fluoro-6-methoxybenzyl)-6-(pyrrolidin-1-ylcarbonyl)piperidin-3-yl]-3-pyridin-4-yl-1H-indazole-5-carboxamide] | 35.5
10 | CNC(=S)NNC(=O)[C@@H]1CC[C@@H](NC(=O)c2ccc3[nH]nc(-c4ccnc(C)c4)c3c2)CN1Cc1c(F)cccc1OC [N-[(3R,6S)-1-(2-fluoro-6-methoxybenzyl)-6-{[2-(methylcarbamothioyl)hydrazino]-carbonyl}piperidin-3-yl]-3-(2-methylpyridin-4-yl)-1H-indazole-5-carboxamide] | 1
11 | O=C(N[C@@H]1CC[C@@H](C(=O)NCc2ccccc2)N(Cc2ccccc2)C1)c1ccc2[nH]nc(-c3ccncc3)c2c1 [N-[(3R,6S)-1-benzyl-6-(benzylcarbamoyl)piperidin-3-yl]-3-pyridin-4-yl-1H-indazole-5-carboxamide] | 47.5
12 | CCNC(=O)[C@@H]1CC[C@@H](NC(=O)c2ccc3[nH]nc(-c4ccncc4)c3c2)CN1Cc1ccccc1 [N-[(3R,6S)-1-benzyl-6-(ethylcarbamoyl)-piperidin-3-yl]-3-pyridin-4-yl-1H-indazole-5-carboxamide] | 48.3
13 | COc1cccc(F)c1CN1C[C@H](NC(=O)c2ccc3[nH]nc(-c4ccnc(C)c4)c3c2)CC[C@H]1C(=O)N1CCC1 [N-[(3R,6S)-6-(azetidin-1-ylcarbonyl)-1-(2-fluoro-6-methoxybenzyl)piperidin-3-yl]-3-(2-methylpyridin-4-yl)-1H-indazole-5-carboxamide] | 34.9
14 | CCN(CC)C(=O)[C@@H]1CC[C@@H](NC(=O)c2ccc3[nH]nc(-c4ccnc(C)c4)c3c2)CN1CCc1ccccc1 [N-[(3R,6S)-6-(diethylcarbamoyl)-1-(2-phenylethyl)piperidin-3-yl]-3-(2-methylpyridin-4-yl)-1H-indazole-5-carboxamide] | 158

Further lines, results first:

Row | IC50 [nM] | Compound
15 | 502 | CCCCN(CCCC)C(=O)[C@@H]1CC[C@@H](NC(=O)c2ccc3[nH]nc(-c4ccnc(C)c4)c3c2)CN1Cc1c(F)cccc1OC [N-[(3R,6S)-6-(dibutylcarbamoyl)-1-(2-fluoro-6-methoxybenzyl)piperidin-3-yl]-3-(2-methylpyridin-4-yl)-1H-indazole-5-carboxamide]
16 | 80.7 | CCN(CC)C(=O)[C@@H]1CC[C@@H](NC(=O)c2ccc3[nH]nc(-c4ccnc(C)c4)c3c2)CN1Cc1c(F)cccc1F [N-[(3R,6S)-6-(diethylcarbamoyl)-1-(2,6-difluorobenzyl)piperidin-3-yl]-3-(2-methylpyridin-4-yl)-1H-indazole-5-carboxamide]
17 | 32.9 | CCN(CC)C(=O)[C@@H]1CC[C@@H](NC(=O)c2ccc3[nH]nc(-c4ccc5nc(C)sc5c4)c3c2)CN1Cc1c(F)cccc1OC [N-[(3R,6S)-6-(diethylcarbamoyl)-1-(2-fluoro-6-methoxybenzyl)piperidin-3-yl]-3-(2-methyl-1,3-benzothiazol-6-yl)-1H-indazole-5-carboxamide]
18 | 16.2 | CCN(CC)C(=O)[C@@H]1CC[C@@H](NC(=O)c2ccc3[nH]nc(-c4ccnc(C)c4)c3c2)CN1Cc1c(F)cccc1OC [N-[(3R,6S)-6-(diethylcarbamoyl)-1-(2-fluoro-6-methoxybenzyl)piperidin-3-yl]-3-(2-methylpyridin-4-yl)-1H-indazole-5-carboxamide]
19 | 137 | CCN(CC)C(=O)[C@@H]1CC[C@@H](NC(=O)c2ccc3[nH]nc(-c4ccnnc4)c3c2)CN1Cc1c(F)cccc1OC [N-[(3R,6S)-6-(diethylcarbamoyl)-1-(2-fluoro-6-methoxybenzyl)piperidin-3-yl]-3-pyridazin-4-yl-1H-indazole-5-carboxamide]
20 | 18.4 | CCN(CC)C(=O)[C@@H]1CC[C@@H](NC(=O)c2ccc3[nH]nc(-c4ccncc4)c3c2)CN1Cc1c(F)cccc1OC [N-[(3R,6S)-6-(diethylcarbamoyl)-1-(2-fluoro-6-methoxybenzyl)piperidin-3-yl]-3-pyridin-4-yl-1H-indazole-5-carboxamide]
21 | 20.1 | CCN(CC)C(=O)[C@@H]1CC[C@@H](NC(=O)c2ccc3[nH]nc(-c4ccnc(C)c4)c3c2)CN1Cc1ccccc1F [N-[(3R,6S)-6-(diethylcarbamoyl)-1-(2-fluorobenzyl)piperidin-3-yl]-3-(2-methylpyridin-4-yl)-1H-indazole-5-carboxamide]
